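Cells were grown in 96-well plates and exposed to each compound for 48 hours at five concentrations; endpoints were interpolated linearly between bracketing concentrations, or set to the highest concentration if not reached. GI50 marks 50% less growth. TGI denotes the concentration required for complete inhibition of growth.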
Assays:
Test in all cases: NCI tumour cell line growth inhibition, 48 h
[1] = test system: MDA-MB-435
[2] = test system: CCRF-CEM leukemia
[3] = test system: HCT-15 colon
[4] = test system: OVCAR-8 ovarian
[5] = test system: OVCAR-4 ovarian
[6] = test system: NCI-H23 lung
[7] = test system: SNB-19 CNS
[8] = test system: MCF7 breast
[9] = test system: HS 578T breast
[10] = test system: SK-OV-3 ovarian
[11] = test system: SN12C renal
[12] = test system: EKVX NSCLC
[13] = test system: HCT-116 colon
[14] = test system: HCC-2998 colon
[15] = test system: SF-295 CNS
[16] = test system: 786-0 renal
[17] = test system: SK-MEL-28 melanoma
[18] = test system: PC-3 prostate
[19] = test system: MDA-MB-231 breast
[20] = test system: TK-10 renal
[21] = test system: ACHN renal
[22] = test system: OVCAR-5 ovarian
[23] = test system: HOP-92 NSCLC
[24] = test system: SNB-75 CNS
[25] = test system: SF-268 CNS
[26] = test system: UACC-257 melanoma
[27] = test system: SF-539 CNS
[28] = test system: SW-620 colon
[29] = test system: SK-MEL-5 melanoma
[30] = test system: T-47D breast
[31] = test system: MALME-3M melanoma
[32] = test system: IGROV1 ovarian
[33] = test system: HT29 colon
[34] = test system: U251 CNS
[35] = test system: LOX IMVI melanoma
[36] = test system: DU-145 prostate
[37] = test system: RXF 393 renal
[38] = test system: BT-549 breast
[39] = test system: SK-MEL-2 melanoma
[40] = test system: CAKI-1 renal
[41] = test system: HOP-62 NSCLC
[42] = test system: RPMI-8226 leukemia
[43] = test system: NCI/ADR-RES ovarian
[44] = test system: UO-31 renal
[45] = test system: A549 NSCLC
[46] = test system: NCI-H522 lung
[47] = test system: KM12 colon
[48] = test system: NCI-H460 lung
[49] = test system: M14 melanoma
[50] = test system: NCI-H226 lung
[51] = test system: OVCAR-3 ovarian
[52] = test system: UACC-62 melanoma
[53] = test system: COLO 205 colon
[54] = test system: A498 renal
[55] = test system: HL-60(TB) leukemia
[56] = test system: MOLT-4 leukemia
[57] = test system: K-562 leukemia
[58] = test system: SR leukemia

## Cc1c(S(C)(=O)=O)c(-c2cc(F)cc(N3CCN(c4ccc(NS(=O)(=O)c5ccc(N[C@H](CCN6CCC(C(=O)OCCCP(=O)(O)O)CC6)CSc6ccccc6)c(S(=O)(=O)C(F)(F)F)c5)cc4)CC3)c2)c(-c2ccc(Cl)cc2)n1C(C)C
[1]
  GI50: > 100 µM
  TGI: > 100 µM
[2]
  GI50: 0.456 µM
  TGI: > 100 µM
[3]
  GI50: > 100 µM
  TGI: > 100 µM
[4]
  GI50: > 100 µM
  TGI: > 100 µM
[5]
  GI50: > 100 µM
  TGI: > 100 µM
[6]
  GI50: > 100 µM
  TGI: > 100 µM
[7]
  GI50: 68.1 µM
  TGI: > 100 µM
[8]
  GI50: > 100 µM
  TGI: > 100 µM
[9]
  GI50: > 100 µM
  TGI: > 100 µM
[10]
  GI50: > 100 µM
  TGI: > 100 µM
[11]
  GI50: > 100 µM
  TGI: > 100 µM
[12]
  GI50: > 100 µM
  TGI: > 100 µM
[13]
  GI50: > 100 µM
  TGI: > 100 µM
[14]
  GI50: 2.13 µM
  TGI: > 100 µM
[15]
  GI50: > 100 µM
  TGI: > 100 µM
[16]
  GI50: > 100 µM
  TGI: > 100 µM
[17]
  GI50: > 100 µM
  TGI: > 100 µM
[18]
  GI50: > 100 µM
  TGI: > 100 µM
[19]
  GI50: 3.13 µM
  TGI: 28 µM
[20]
  GI50: 25.8 µM
  TGI: > 100 µM
[21]
  GI50: > 100 µM
  TGI: > 100 µM
[22]
  GI50: > 100 µM
  TGI: > 100 µM
[23]
  GI50: 0.0794 µM
  TGI: 0.952 µM
[24]
  GI50: > 100 µM
  TGI: > 100 µM
[25]
  GI50: > 100 µM
  TGI: > 100 µM
[26]
  GI50: > 100 µM
  TGI: > 100 µM
[27]
  GI50: > 100 µM
  TGI: > 100 µM
[28]
  GI50: > 100 µM
  TGI: > 100 µM
[29]
  GI50: > 100 µM
  TGI: > 100 µM
[30]
  GI50: > 100 µM
  TGI: > 100 µM
[31]
  GI50: > 100 µM
  TGI: > 100 µM
[32]
  GI50: > 100 µM
  TGI: > 100 µM
[33]
  GI50: > 100 µM
  TGI: > 100 µM
[34]
  GI50: > 100 µM
  TGI: > 100 µM
[35]
  GI50: > 100 µM
  TGI: > 100 µM
[36]
  GI50: > 100 µM
  TGI: > 100 µM
[37]
  GI50: > 100 µM
  TGI: > 100 µM
[38]
  GI50: > 100 µM
  TGI: > 100 µM
[39]
  GI50: > 100 µM
  TGI: > 100 µM
[40]
  GI50: > 100 µM
  TGI: > 100 µM
[41]
  GI50: > 100 µM
  TGI: > 100 µM
[42]
  GI50: 1.29 µM
  TGI: > 100 µM
[43]
  GI50: > 100 µM
  TGI: > 100 µM
[44]
  GI50: > 100 µM
  TGI: > 100 µM
[45]
  GI50: > 100 µM
  TGI: > 100 µM
[46]
  GI50: > 100 µM
  TGI: > 100 µM
[47]
  GI50: > 100 µM
  TGI: > 100 µM
[48]
  GI50: > 100 µM
  TGI: > 100 µM
[49]
  GI50: > 100 µM
  TGI: > 100 µM
[50]
  GI50: > 100 µM
  TGI: > 100 µM
[51]
  GI50: > 100 µM
  TGI: > 100 µM
[52]
  GI50: > 100 µM
  TGI: > 100 µM
[53]
  GI50: > 100 µM
  TGI: > 100 µM
[54]
  GI50: > 100 µM
  TGI: > 100 µM

## O=C(CSCC(=O)N/N=C/c1cccs1)N/N=C/c1cccs1
[1]
  TGI: > 100 µM
[2]
  TGI: > 100 µM
[3]
  TGI: > 100 µM
[4]
  TGI: > 100 µM
[5]
  TGI: > 100 µM
[55]
  TGI: > 100 µM
[6]
  TGI: > 100 µM
[7]
  TGI: > 100 µM
[8]
  TGI: > 100 µM
[9]
  TGI: > 100 µM
[10]
  TGI: > 100 µM
[11]
  TGI: > 100 µM
[12]
  TGI: > 100 µM
[13]
  TGI: > 100 µM
[14]
  TGI: > 100 µM
[15]
  TGI: > 100 µM
[16]
  TGI: > 100 µM
[17]
  TGI: > 100 µM
[18]
  TGI: > 100 µM
[19]
  TGI: > 100 µM
[20]
  TGI: > 100 µM
[21]
  TGI: > 100 µM
[22]
  TGI: > 100 µM
[23]
  TGI: > 100 µM
[24]
  TGI: > 100 µM
[25]
  TGI: > 100 µM
[26]
  TGI: > 100 µM
[27]
  TGI: > 100 µM
[28]
  TGI: > 100 µM
[56]
  TGI: > 100 µM
[29]
  TGI: > 100 µM
[30]
  TGI: > 100 µM
[31]
  TGI: > 100 µM
[32]
  TGI: > 100 µM
[33]
  TGI: > 100 µM
[34]
  TGI: > 100 µM
[35]
  TGI: > 100 µM
[36]
  TGI: > 100 µM
[37]
  TGI: > 100 µM
[38]
  TGI: > 100 µM
[39]
  TGI: > 100 µM
[40]
  TGI: > 100 µM
[41]
  TGI: > 100 µM
[42]
  TGI: > 100 µM
[43]
  TGI: > 100 µM
[44]
  TGI: > 100 µM
[45]
  TGI: > 100 µM
[46]
  TGI: > 100 µM
[47]
  TGI: > 100 µM
[48]
  TGI: > 100 µM
[49]
  TGI: > 100 µM
[50]
  TGI: > 100 µM
[51]
  TGI: > 100 µM
[52]
  TGI: > 100 µM
[54]
  TGI: > 100 µM
[57]
  TGI: > 100 µM

## CCOC(=O)C1=C(c2ccccc2)N(C)c2ccccc2S1
[1]
  TGI: > 100 µM
[2]
  TGI: > 100 µM
[3]
  TGI: 31.3 µM
[4]
  TGI: > 100 µM
[5]
  TGI: > 100 µM
[55]
  TGI: > 100 µM
[6]
  TGI: 60.4 µM
[7]
  TGI: > 100 µM
[8]
  TGI: 78.8 µM
[9]
  TGI: 72.3 µM
[10]
  TGI: > 100 µM
[11]
  TGI: 58.2 µM
[12]
  TGI: > 100 µM
[13]
  TGI: 73.3 µM
[15]
  TGI: > 100 µM
[16]
  TGI: > 100 µM
[17]
  TGI: > 100 µM
[18]
  TGI: > 100 µM
[19]
  TGI: 58.9 µM
[20]
  TGI: > 100 µM
[58]
  TGI: > 100 µM
[21]
  TGI: 58.5 µM
[22]
  TGI: > 100 µM
[23]
  TGI: > 100 µM
[24]
  TGI: > 100 µM
[25]
  TGI: 97.3 µM
[26]
  TGI: 86.1 µM
[27]
  TGI: > 100 µM
[28]
  TGI: > 100 µM
[56]
  TGI: > 100 µM
[29]
  TGI: 30.3 µM
[30]
  TGI: 73.9 µM
[31]
  TGI: > 100 µM
[32]
  TGI: > 100 µM
[33]
  TGI: 46.1 µM
[34]
  TGI: 49.1 µM
[35]
  TGI: 30.3 µM
[36]
  TGI: > 100 µM
[38]
  TGI: 66.6 µM
[39]
  TGI: 45.3 µM
[40]
  TGI: > 100 µM
[41]
  TGI: > 100 µM
[42]
  TGI: 66.5 µM
[43]
  TGI: 65.1 µM
[44]
  TGI: 81 µM
[45]
  TGI: > 100 µM
[46]
  TGI: 52.3 µM
[48]
  TGI: 63.6 µM
[49]
  TGI: > 100 µM
[50]
  TGI: 54.1 µM
[51]
  TGI: > 100 µM
[52]
  TGI: 53.2 µM
[53]
  TGI: > 100 µM
[57]
  TGI: > 100 µM

From PubChem BioAssay (NCI)
